Laboratory results from patent US20220024963A1, “SALT OF TRIPHOSPHATE PHOSPHORAMIDATES OF NUCLEOTIDES AS ANTICANCER COMPOUNDS” (priority 2019, published 2022).
Counter-ions that a name gives are not always drawn. Like-named read-outs stand apart in the source and are kept apart here.

How the values were obtained:
[1] = system: CCRF-CEM; test: In vitro viability assay, CellTiterGlo, 72 h (Example A); assay type: cell-based; settings: for EC50: read-out: Ab EC50
Description: (§1) A compound of the invention was assayed for cytotoxic activity in an array of different solid tumours and haematological malignancies using the following assay.
(§2) In vitro viability assay was performed to assess the effects of compounds on cell viability in selected cell lines over 72 h using the CellTiterGlo (CTG, Promega-G7573) assay. The tests were performed in duplicates with treatment of compounds at 9 points, 3.16 folds titration in 96 well plates over ˜72 h. The compound starting concentrations were 198 μM. Cell viability assay using CellTiterGlo in 96-well plate were performed. Compound treatment 72 h, standard growth conditions, duplicates. Compounds were dissolved to 40 mM with thawed […]. Compounds were serially diluted at 3.16 fold in thawed DMSO and warmed to 37° C. before being dissolved in media (2 μL+200 μL). After compounds were dissolved in media, media containing compounds were warmed to 37° C. in incubator and then compounds in media were added to cell plates (50 μL+50 μL) in duplicates. The compounds' final concentrations were from 198 μM to 19.8 nM. All compound solubilities were checked and recorded again, then the plates were transferred to CO2 tissue culture incubator immediately and incubated for 3 days. DMSO final concentration is 0.5%.

[2] = system: HL-60; test: as above; assay type: cell-based; settings: HL-60, CellTiterGlo; for EC50: read-out: Ab EC50
Description: as §1, §2

[3] = system: K562; test: as above; assay type: cell-based; settings: for EC50: read-out: Ab EC50
Description: as §1, §2

[4] = system: MCF-7; test: as above; assay type: cell-based
Description: as §1, §2

[5] = system: KG-1; test: as above; assay type: cell-based; settings: KG-1, CellTiterGlo; for EC50: read-out: Ab EC50
Description: as §1, §2

[6] = system: MOLT-4; test: as above; assay type: cell-based; settings: MOLT-4, CellTiterGlo; for EC50: read-out: Ab EC50
Description: as §1, §2

[7] = system: HT29; test: as above; assay type: cell-based
Description: as §1, §2

[8] = system: RL; test: as above; assay type: cell-based; settings: for EC50: read-out: Ab EC50
Description: as §1, §2

[9] = system: HepG2; test: as above; assay type: cell-based; settings: for EC50: read-out: Ab EC50
Description: as §1, §2

[10] = system: KG1 (AML); test: Cytotoxicity assay (AlamarBlue - resazurin dye), 72 h (Example B); assay type: cell-based; settings: KG1, 72 h treatment
Excerpt: (§3) The efficacy (evaluated by IC50) of clofarabine and 3 different compounds representing different class of clofarabine ProTides (monophosphate, diphosphate and triphosphate molecules) was compared.
(§4) The tested cancer cell lines were acute lymphoblastic leukaemia (ALL), acute myeloid leukaemia (AML) and lymphoma: CCRF-CEM (ALL), HL60 (AML), KG1 (AML), OCI-AML3 (AML) and RL (lymphoma), grown in suspension, in RPMI-1640 media, supplemented with 10% FBS serum and 1% pen strep, except for KG1 cell line for which FBS was 20%.
(§5) For all experiments, cells were plated on a 96 well plate, at a density of 10,000 cells/well in 50 μL media. Dilutions from stock concentration to working solutions were prepared in media; at twice the required concentration and 50 μL was added per well (this achieving the final concentrations described in results below). Control untreated received 50 μL of plain media. After 66 h 10 μL of resazurin was added per well (dilution 1:10). Cells were then incubated with for up to 6 h. After 72 h treatment, cytotoxicity assay (AlamarBlue™−resazurin dye) was performed to determine cell survival. Plates were scanned with a BioHit800 plate reader and data were analysed with Excel and GraphPad Prism.
(§6) A low IC50 indicates greater potency under these laboratory conditions.

[11] = system: RL (lymphoma); test: as above; assay type: cell-based; settings: 72 h treatment
Excerpt: as §3, §4, §5, §6

[12] = system: HL60 (AML); test: as above; assay type: cell-based
Excerpt: as §3, §4, §5, §6

[13] = system: OCI-AML3 (AML); test: cells; assay type: cell-based; settings: for IC50: OCI-AML3, 72 h treatment, AlamarBlue; for Survival @ 50 nM: OCI-AML3, 50 nM; for Survival @ 50 nM / Survival @ 125 nM: percentage of cell survival, 72 h; for Survival @ 125 nM: OCI-AML3, 125 nM
Excerpt: as §3, §4, §5, §6
(§7) Clofarabine, A, 5a, 5b, 5c, 5d, 5e and 5f were tested against CCRF-CEM and OCI-AML3 cells. Data is represented as the percentage ofcell survival for each ofthe different concentrations to which cells were exposed, rather than calculating a formal IC50 from only two or three datapoints.

[14] = system: CCRF-CEM (ALL); test: cells; assay type: cell-based; settings: for Survival @ 25 nM / Survival @ 50 nM / Survival @ 125 nM: percentage of cell survival, 72 h; for IC50: 72 h treatment, AlamarBlue
Excerpt: as §3, §4, §5, §6, §7

[15] = system: RPMI-8226; test: In vitro viability assay, CellTiterGlo, 72 h (Example A); assay type: cell-based, Human; settings: RPMI-8226, CellTiterGlo; for EC50: read-out: Ab EC50
Description: as §1, §2

[16] = system: CCRF-CEM and OCI-AML3 cells; assay type: cell-based; settings: both cell lines
Description: as §5, §7

[17] = Homo sapiens, HT-29, read-out: Ab EC50
[18] = Homo sapiens, HL-60, HL60, 72 h treatment

Row | Compound | Top Inhibit [1] | Top Inhibit [2] | Top Inhibit [3] | Top Inhibit [5] | Top Inhibit [6] | Top Inhibit [7] | Top Inhibit [8] | Top Inhibit [9] | IC50 [10] | IC50 [11] | IC50 [12, 18] | IC50 ([13]; Homo sapiens, OCI-AML-3) | Survival @ 50 nM [13] | Survival @ 125 nM [13] | Survival @ 25 nM [14] | Survival @ 50 nM [14] | Survival @ 125 nM [14] | IC50 ([14]; Homo sapiens) | Top Inhibit [15] | efficacy compared to A and clofarabine [16] | also measured
1 | C[C@H](NP(=O)(Oc1ccccc1)OP(=O)(O)OP(=O)(O)OC[C@H]1O[C@@H](n2cnc3c(N)nc(Cl)nc32)C(F)[C@H]1O)C(=O)OCc1ccccc1 (stereo partly drawn) [Compound 5a, (2S)-Benzyl 2-(((((((((2R,3R,4S,5R)-5-(6-amino-2-chloro-9H-purin-9-yl)-4-fluoro-3-hydroxytetrahydrofuran-2-yl)methoxy)(hydroxy)phosphoryl)oxy) (hydroxy)phosphoryl)oxy)(phenoxy)phosphoryl)amino)propanoate, di-triethylammonium salt] | 99% | 97% | 33% | 92% | 86% | 64% | 57% | 51% | 0.349 µM | 0.117 µM | 0.0562 µM | 0.114 µM | 86% | 51% | 81% | 100% | 13% | 0.079 µM | 94% | – | EC50 ([1]; Homo sapiens): < 0.02 µM; EC50 ([2]; Homo sapiens): 0.33 µM; EC50 ([3]; Homo sapiens): > 198 µM; EC50 ([4]; Homo sapiens, MCF7, MCF-7, CellTiterGlo, read-out: Ab EC50): > 198 µM; Top Inhibit ([4]; MCF-7, CellTiterGlo): 40%; EC50 ([5]; Homo sapiens): 0.31 µM; EC50 ([6]; Homo sapiens): 0.04 µM; EC50 [7, 17]: 0.5 µM; EC50 ([8]; Homo sapiens): 44.6 µM; EC50 ([9]; Homo sapiens): 0.62 µM; EC50 ([15]; Homo sapiens): 20.2 µM
2 | Clofarabine | 99% | 97% | 32% | 93% | 94% | 68% | 61% | 57% | 0.244 µM | 0.114 µM | – | – | 47% | 19% | 36% | 17% | 13% | – | 80% | – | EC50 [1]: < 0.02 µM; EC50 [2]: 0.04 µM; EC50 [3]: > 198 µM; EC50 [5]: 0.07 µM; EC50 [6]: < 0.02 µM; EC50 ([7]; read-out: Ab EC50): 0.26 µM; EC50 [8]: 0.31 µM; EC50 [9]: 1.09 µM; IC50 ([12]; HL60, 72 h treatment): 0.0415 µM; IC50 [13]: 0.074 µM; IC50 [14]: 0.0405 µM; EC50 [15]: 27.6 µM
3 | (2S)-Neopentyl 2-(((((((((2R,3R,4S,5R)-5-(6-amino-2-chloro-9H-purin-9-yl)-4-fluoro-3-hydroxytetrahydrofuran-2-yl)methoxy)(hydroxy)phosphoryl)oxy)(hydroxy)phosphoryl)oxy)(phenoxy)phosphoryl)amino)-3-phenylpropanoate di-triethylammonium salt [Compound 5f] | – | – | – | – | – | – | – | – | – | – | – | – | 57% | 32% | 85% | 16% | 14% | – | – | superior efficacy | –
4 | C[C@H](NP(=O)(Oc1cccc2ccccc12)OP(=O)(O)OP(=O)(O)OC[C@H]1O[C@@H](n2cnc3c(N)nc(Cl)nc32)[C@@H](F)[C@@H]1O)C(=O)OCc1ccccc1 (stereo partly drawn) [Compound 5b, (2S)-Benzyl 2-(((((((((2R,3R,4S,5R)-5-(6-amino-2-chloro-9H-purin-9-yl)-4-fluoro-3-hydroxytetrahydrofuran-2-yl)methoxy)(hydroxy)phosphoryl)oxy)(hydroxy)phosphoryl)oxy)(naphthalen-1-yloxy)phosphoryl)amino)propanoate di-triethylammonium salt] | – | – | – | – | – | – | – | – | – | – | – | – | 64% | 24% | 36% | 18% | 13% | – | – | superior efficacy | –
5 | (2S)-Methyl 2-(((((((((2R,3R,4S,5R)-5-(6-amino-2-chloro-9H-purin-9-yl)-4-fluoro-3-hydroxytetrahydrofuran-2-yl)methoxy)(hydroxy)phosphoryl)oxy)(hydroxy)phosphoryl)oxy)(phenoxy)phosphoryl)amino)-4-(methylthio)butanoate di-triethylammonium salt [Compound 5d] | – | – | – | – | – | – | – | – | – | – | – | – | 61% | 29% | 92% | 16% | 14% | – | – | superior efficacy | –
6 | (2S)-Isopropyl 2-(((((((((2R,3R,4S,5R)-5-(6-amino-2-chloro-9H-purin-9-yl)-4-fluoro-3-hydroxytetrahydrofuran-2-yl)methoxy)(hydroxy)phosphoryl)oxy)(hydroxy) phosphoryl)oxy)(phenoxy)phosphoryl)amino)propanoate di-triethylammonium salt [Compound 5c] | – | – | – | – | – | – | – | – | – | – | – | – | 99% | 61% | 93% | 94% | 14% | – | – | – | –
7 | C[C@H](NP(=O)(OC[C@H]1O[C@@H](n2cnc3c(N)nc(Cl)nc32)C(F)[C@H]1O)Oc1ccccc1)C(=O)OCc1ccccc1 (some centres unmarked) [A] | 99% | 95% | 85% | 93% | 100% | 86% | 90% | 99% | 1.76 µM | 0.399 µM | 0.091 µM | 0.253 µM | 99% | 96% | 96% | 100% | 100% | 0.275 µM | 83% | – | EC50 ([1]; Homo sapiens): 0.08 µM; EC50 ([2]; Homo sapiens): 0.22 µM; EC50 ([3]; Homo sapiens): 27.3 µM; EC50 ([5]; Homo sapiens): 0.44 µM; EC50 ([6]; Homo sapiens): 0.25 µM; EC50 [7, 17]: 1.73 µM; EC50 ([8]; Homo sapiens): 4.26 µM; EC50 ([9]; Homo sapiens): 7.63 µM; EC50 ([15]; Homo sapiens): 9.2 µM
8 | (2S)-Cyclohexyl 2-(((((((((2R,3R,4S,5R)-5-(6-amino-2-chloro-9H-purin-9-yl)-4-fluoro-3-hydroxytetrahydrofuran-2-yl)methoxy)(hydroxy)phosphoryl)oxy)(hydroxy)phosphoryl)oxy)(phenoxy)phosphoryl)amino)-3-methylbutanoate di-triethylammonium salt [Compound 5e] | – | – | – | – | – | – | – | – | – | – | – | – | 100% | 95% | 99% | 75% | 90% | – | – | – | –
9 | C[C@H](NP(=O)(Oc1ccccc1)OP(=O)(O)OC[C@H]1O[C@@H](n2cnc3c(N)nc(Cl)nc32)C(F)[C@H]1O)C(=O)OCc1ccccc1 (some centres unmarked) [B] | – | – | – | – | – | – | – | – | 0.267 µM | 0.153 µM | 0.0719 µM | 0.121 µM | – | – | – | – | – | 0.0825 µM | – | – | –
